ChEMBL document CHEMBL1124890 (J Med Chem, 1990)
Numbered stars: 1 amine (or outer) side, 2 acyl side, 3 side chain; on linkers, the order of the positions; unused ones are H or OH. Square brackets hold non-standard residues; d marks the D form. Peptide text beside a SMILES is read from it. X6 = CN(C)C[C@H]1C=NN([*:1])[C@H](C(=O)[*:2])C1; X5 = O=C1CC[C@@H](C(=O)[*:2])N([*:1])N1; dPiz(1,6-dehydro) = O=C(O)[C@H]1CCC=NN1; X2 = CN1CCC[C@@H](C(=O)[*:2])N1[*:1]; X1 = CN1CCC[C@H](C(=O)[*:2])N1[*:1]; X7 = O=C([C@@H]1C=CC=NN1[*:1])[*:2]; X4 = O=C([C@@H]1CCCNN1[*:1])[*:2]; X3 = O=C([C@H]1CCCNN1[*:1])[*:2]; dNMeF = CN[C@H](Cc1ccccc1)C(=O)O

Experiments:
Oxytocin receptor = molecular target: T1, Oxytocin receptor (Rattus norvegicus, UniProt P70536); assay: Binding affinity against oxytocin receptor in rat uterus
T1 sequence (P70536 whole entry): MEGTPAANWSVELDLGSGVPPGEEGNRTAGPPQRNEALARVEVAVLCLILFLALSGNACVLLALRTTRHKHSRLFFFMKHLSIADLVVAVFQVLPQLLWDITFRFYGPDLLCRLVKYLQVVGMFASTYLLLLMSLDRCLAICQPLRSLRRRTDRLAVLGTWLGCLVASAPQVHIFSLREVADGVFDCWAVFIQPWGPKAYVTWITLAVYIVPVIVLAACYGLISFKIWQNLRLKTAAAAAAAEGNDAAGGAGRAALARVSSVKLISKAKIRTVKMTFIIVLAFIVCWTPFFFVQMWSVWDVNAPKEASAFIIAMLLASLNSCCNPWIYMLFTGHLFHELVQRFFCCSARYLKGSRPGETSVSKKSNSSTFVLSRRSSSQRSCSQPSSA

Vasopressin V2 receptor = Vasopressin V2 receptor (Rattus norvegicus, UniProt Q00788); assay: Binding affinity against Vasopressin receptor in rat kidney medulla
Vasopressin V2 receptor, sequence (Q00788 whole entry): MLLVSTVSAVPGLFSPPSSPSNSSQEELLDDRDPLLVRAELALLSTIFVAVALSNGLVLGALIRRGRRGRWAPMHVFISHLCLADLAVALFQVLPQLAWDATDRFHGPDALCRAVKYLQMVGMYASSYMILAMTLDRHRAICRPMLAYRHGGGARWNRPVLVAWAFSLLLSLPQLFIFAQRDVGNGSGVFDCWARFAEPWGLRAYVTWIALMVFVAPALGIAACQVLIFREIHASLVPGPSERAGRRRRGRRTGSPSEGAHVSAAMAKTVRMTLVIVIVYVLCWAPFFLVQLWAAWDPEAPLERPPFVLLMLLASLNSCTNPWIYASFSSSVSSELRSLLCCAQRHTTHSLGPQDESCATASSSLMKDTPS

Row | SMILES | Ki (Oxytocin receptor) [nM] | Ki (Vasopressin V2 receptor) [µM]
1 | CC[C@H](C)[C@@H]1NC(=O)[C@@H](Cc2ccccc2)NC(=O)[C@@H]2CCCN2C(=O)[C@@H](Cc2ccccc2)N(C)C(=O)[C@@H]2C=CC=NN2C(=O)[C@H]2CCC=NN2C1=O (cyclo(I[dPiz(1,6-dehydro)][X7][dNMeF]P[dF])) | 8.1 | 0.58
2 | CC[C@H](C)[C@H]1C(=O)N2NCCC[C@@H]2C(=O)N2NCCC[C@H]2C(=O)N(C)[C@H](Cc2ccccc2)C(=O)N2CCC[C@H]2C(=O)N[C@H](Cc2ccccc2)C(=O)N1O | 150 | 3.4
3 | CC[C@@H](C)[C@@H]1/N=C(\S)[C@@H](Cc2ccccc2)NC(=O)[C@@H]2CCCN2C(=O)[C@@H](Cc2ccccc2)N(C)C(=O)[C@@H]2CCC=NN2C(=O)[C@H]2CCC=NN2C1=O | 1.1 | 0.07
4 | CC[C@H](C)[C@@H]1NC[C@@H](Cc2ccccc2)NC(=O)[C@@H]2CCCN2C(=O)[C@@H](Cc2ccccc2)N(C)C(=O)[C@@H]2CCC=NN2C(=O)[C@H]2CCC=NN2C1=O | > 30000 | 30
5 | CC[C@H](C)[C@@H]1NC(=O)[C@@H](Cc2ccccc2)NC(=O)[C@@H]2CCCN2C(=O)[C@@H](Cc2ccccc2)N(C)C(=O)[C@@H]2CCC(=O)NN2C(=O)[C@H]2CCCNN2C1=O (cyclo(I[X3][X5][dNMeF]P[dF])) | 89 | 7.8
6 | CC[C@H](C)[C@@H]1NC(=O)[C@@H](Cc2ccccc2)NC(=O)[C@@H]2CCCN2C(=O)[C@@H](Cc2ccccc2)N(C)C(=O)[C@@H]2CCCN(C)N2C(=O)[C@H]2CCCN(C)N2C1=O (cyclo(I[X1][X2][dNMeF]P[dF])) | 2500 | 3.1

Results, then the compound that gave them:

Row | Ki (Oxytocin receptor) [nM] | Ki (Vasopressin V2 receptor) [µM] | SMILES
7 | 9.6 | 6.8 | CC[C@H](C)[C@@H]1NC(=O)[C@@H](Cc2ccccc2)NC(=O)[C@@H]2CCCN2C(=O)[C@@H](Cc2ccccc2)N(C)C(=O)[C@@H]2CCC(=O)NN2C(=O)[C@H]2CCC=NN2C1=O (cyclo(I[dPiz(1,6-dehydro)][X5][dNMeF]P[dF]))
8 | 3.4 | 1.1 | CC[C@H](C)[C@@H]1NC(=O)[C@@H](Cc2ccccc2)NC(=O)[C@@H]2CCCN2C(=O)[C@@H](Cc2ccccc2)N(C)C(=O)[C@@H]2C[C@@H](CN(C)C)C=NN2C(=O)[C@H]2CCC=NN2C1=O (cyclo(I[dPiz(1,6-dehydro)][X6][dNMeF]P[dF]))
9 | 30 | 1.5 | CC[C@H](C)[C@@H]1NC(=O)[C@@H](Cc2ccccc2)NC(=O)[C@@H]2CCCN2C(=O)[C@@H](Cc2ccccc2)N(C)C(=O)[C@@H]2CCCNN2C(=O)[C@H]2CCCNN2C1=O (cyclo([X3][X4][dNMeF]P[dF]I))
